Values joined by “and” are separate entries in the source; they are usually repeats but may differ in a detail not shown here. Equal values may be shown once.
Assays:
gpH3R = target: T1, gpH3R (Cavia porcellus, UniProt Q9JI35); test: Ex vivo assay for histamine H3R antagonists on electrically stimulated guinea pig ileum
T1 construct: from tissue; host or cells: isolated distal ileum of male guinea pigs
Description: All newly synthesized compounds were evaluated as H3R antagonists/inverse agonists on the guinea pig ileum (gpH3R), stimulated electrically to induce contractions. The distinct affinity profile and species-dependent pharmacology of H3R ligands are known. […] Therefore, to compare species differences, all newly synthesized compounds were subjected to radioligand displacement assay in membrane fractions of HEK-293 cells stably expressing hH3R.
Ex vivo assay for histamine H3R and H1R antagonists were measured on the isolated guinea pig ileum stimulated to contractions by histamine. The pA2-values were calculated according to Arunlakshana and Schild. The radioligand-displacement binding assay was performed in membrane fractions of HEK-293 cells stably expressing hH3R. Cell cultivation and membrane preparation was performed according to Kottke et al.. The Ki values were calculated from the IC50 values using the Cheng–Prusoff equation [37]. The statistical calculations were performed on –log(Ki). […] The inhibitory activities of novel ADS compounds were assessed in spectrophotometric Ellman’s assay using AChE from electric eel (eeAChE) and BuChE from horse serum (eqBuChE).
3. Pharmacological assay results.
3.1. Ex vivo assay for histamine H3R receptor antagonists on guinea pig ileum.
Male guinea pigs, weighing 300-400 g were euthanized by a blow to the neck. Following this, a 20-30 cm length of the distal ileum, apart from the terminal 5 cm was rapidly removed and placed in phosphate buffer at room […]
indomethacin (Sigma-Aldrich, St. Louis, MO, USA) (1·10-6 mol/L). The intraluminal content was rinsed and the isolated intestine was cut into 1.5-2 cm segments. The preparations were mounted between two platinum electrodes […]
load of 1.0 g (Hugo Sachs Hebel-Messvorsatz (Tl-2)/HF-modem; Hugo Sachs Elektronik, Hugstetten, Germany) connected to a pen recorder (Kipp & Zonen BD41, Delft, Holland). During an equilibration period of 60 min, the Krebs buffer was changed every 10 min. The preparations were then continuously stimulated at 15-20 V at a frequency of 0.1 Hz for a duration of 0.5 ms, with rectangular-wave electrical pulses (Grass Stimulator S-88; Grass Instruments Co., Quincy, Massachusetts, USA). […] Five minutes […]
before (R)-(−)-α-methylhistamine (RAMH) (Toronto Research Chemicals Inc., North York, Canada), […]
added. The first cumulative concentration-response curve was determined to RAMH (10 nM – 10 mM) at an […]
The second to fourth curve was measured against increasing antagonist concentration (incubation time 20 min). The pA2-values were calculated according to Arunlakshana and Schild. [Br J Pharmacol Chemother. […] Statistical analysis was carried out with the Students’ t-test. In all tests, a p<0.05 was considered statistically significant. The pA2 values were compared with the affinity of thioperamide (Sigma-Aldrich, St. Louis, MO, USA).

eeAChE = target: T2, eeAChE (Electrophorus electricus, UniProt O42275); test: biochemical; set-up: species or system electric eel; settings: 10 µM; read-out: eeAChE % inh. (10 µM) ± SD
T2 construct: purchased Sigma–Aldrich (Steinheim, Germany)
T2 sequence (O42275 24-633): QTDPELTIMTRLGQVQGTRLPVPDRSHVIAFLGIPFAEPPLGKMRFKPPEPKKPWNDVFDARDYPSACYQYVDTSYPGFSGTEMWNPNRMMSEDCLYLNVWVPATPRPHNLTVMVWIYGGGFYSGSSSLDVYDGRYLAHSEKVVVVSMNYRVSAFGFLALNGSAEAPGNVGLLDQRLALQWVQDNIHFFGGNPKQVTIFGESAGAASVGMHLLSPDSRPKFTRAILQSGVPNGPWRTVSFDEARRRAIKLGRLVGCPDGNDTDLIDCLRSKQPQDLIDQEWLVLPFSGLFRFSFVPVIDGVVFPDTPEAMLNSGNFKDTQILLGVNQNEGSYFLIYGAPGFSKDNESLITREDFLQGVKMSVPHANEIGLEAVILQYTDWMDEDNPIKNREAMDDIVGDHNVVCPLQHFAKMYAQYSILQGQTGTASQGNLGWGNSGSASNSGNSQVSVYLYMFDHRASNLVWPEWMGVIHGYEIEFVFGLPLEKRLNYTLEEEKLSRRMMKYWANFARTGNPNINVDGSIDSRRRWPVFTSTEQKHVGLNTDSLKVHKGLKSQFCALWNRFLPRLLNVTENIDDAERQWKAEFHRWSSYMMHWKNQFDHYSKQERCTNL

eqBuChE = eqBuChE (Equus caballus, UniProt P81908); test: biochemical; settings: for inhibition at 10 µM: read-out: eqBuChE % inh. (10 µM) ± SD; for IC50: read-out: eqBuChE IC50 ± sem
Chain of eqBuChE (P81908 whole entry): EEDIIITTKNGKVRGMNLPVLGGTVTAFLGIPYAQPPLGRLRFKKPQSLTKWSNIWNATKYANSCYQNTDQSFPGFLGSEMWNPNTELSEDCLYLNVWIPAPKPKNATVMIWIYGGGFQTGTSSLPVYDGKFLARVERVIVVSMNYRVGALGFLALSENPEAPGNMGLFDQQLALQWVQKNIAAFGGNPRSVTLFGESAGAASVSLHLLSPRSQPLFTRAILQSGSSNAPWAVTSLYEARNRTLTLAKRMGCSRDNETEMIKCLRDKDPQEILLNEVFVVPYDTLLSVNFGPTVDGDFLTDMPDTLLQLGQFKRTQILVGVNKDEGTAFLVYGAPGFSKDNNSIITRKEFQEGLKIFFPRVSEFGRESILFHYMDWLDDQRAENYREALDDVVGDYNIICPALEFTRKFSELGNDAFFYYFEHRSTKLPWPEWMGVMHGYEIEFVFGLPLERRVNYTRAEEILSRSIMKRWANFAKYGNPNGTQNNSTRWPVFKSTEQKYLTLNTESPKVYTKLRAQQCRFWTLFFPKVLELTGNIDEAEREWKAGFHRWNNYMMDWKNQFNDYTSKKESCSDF

[1] = system: MCF-7 breast cancer cells; test: cells; type: cell-based; settings: for IC50: Homo sapiens, MCF7, 48 h, read-out: MTT IC50 MCF-7
Description: (§1) The cell lines were obtained from American Type Culture Collection (ATCC, Manassas, VA, USA) and were cultured at 37 °C in the presence of 5% CO2 in the atmosphere. […] The cell’s morphology was examined under a Nikon Eclipse Ti inverted phase contrast microscope (Nikon, Tokyo, Japan). The authenticity of tested cell lines was verified by short tandem repeat (STR) genotyping in the Department of Forensic Medicine (Medical University of Lublin, Lublin, Poland).
(§2) Cell viability based on metabolic activity was evaluated with the MTT colorimetric test based on the ability of viable cells to cause the transformation of tetrazolium salts MTT (3-[4,5-dimethylthiazol-2-yl]-2,5)diphenyltetrazolium bromide) into purple formazan, by cellular dehydrogenases. The cells were seeded into 96-well plates at a concentration of 2 × 10^5 cells/mL. […] Doxorubicin was used for comparison as the standard chemotherapeutic agent used in breast cancer treatment. After 48 h of incubation cell cultures were supplemented with 20 µL of 5 mg/mL MTT (Thermofisher, Waltham, MA, USA) stock in PBS (Corning, NY, USA), and the incubation was continued for 4 h at 37 °C. Next, the medium with MTT was removed, and obtained crystals were dissolved in 200 µL of DMSO (dimethyl sulfoxide, Avantor, Gliwice, Poland). The solution absorbency was measured at 570 nm, using a PowerWave™ xs microplate spectrophotometer (BioTek Instruments, Winooski, VT, USA). The experiment was performed three times with three replicates for each concentration of tested compounds.

[2] = system: MDA-MB-231 breast cancer cells; test: cells; type: cell-based; settings: Homo sapiens, MDA-MB-231, 48 h, read-out: MTT IC50 MDA-MB-231
Description: as §1, §2

T1 sequence (Q9JI35 whole entry): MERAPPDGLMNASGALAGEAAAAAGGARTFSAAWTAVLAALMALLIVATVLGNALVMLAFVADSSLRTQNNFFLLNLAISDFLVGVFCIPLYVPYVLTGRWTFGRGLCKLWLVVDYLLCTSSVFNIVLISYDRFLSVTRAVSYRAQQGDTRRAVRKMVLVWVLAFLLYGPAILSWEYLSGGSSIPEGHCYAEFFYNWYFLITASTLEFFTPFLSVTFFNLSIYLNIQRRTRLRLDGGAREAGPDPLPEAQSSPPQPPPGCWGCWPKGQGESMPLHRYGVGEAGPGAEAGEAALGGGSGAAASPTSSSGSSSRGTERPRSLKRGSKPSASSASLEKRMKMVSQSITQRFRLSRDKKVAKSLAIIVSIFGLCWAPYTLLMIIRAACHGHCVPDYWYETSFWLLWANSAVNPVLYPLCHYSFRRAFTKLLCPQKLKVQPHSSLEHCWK

Structure (SMILES)	gpH3R pA2 ± sem (gpH3R; isolated guinea pig ileum, vs RAMH, 20 min)	inhibition at 10 µM (eeAChE) [%]	inhibition at 10 µM (eqBuChE) [%]	IC50 (eqBuChE) [µM]	IC50 [1] [µM]	IC50 [2] [µM]	Kb (gpH3R) [µM]	Cell viability (%) ± SD, MCF-7 ([1]; MTT, 48 h, concentrations among 10-125 μM, column of each value cannot be told)
N=C(N)N(CCCCN1CCN(CCCCCCCOc2ccccc2)CC1)Cc1ccccc1 [ADS1017]	8.21 ± 0.15	49.7 ± 0.7	70.8 ± 0.6	5.1 ± 0.1	24.7	19.9	–	–
Cl.Cl.N=C(NCCCCc1ccc(Cl)cc1)NCCCCN1CCCCC1 [ADS10310]	–	7.3 ± 0.9	83.9 ± 0.1	1.7 ± 0.1	82.9	115	0.0191	79.57±1.33% and 60.51±1.86% and 57.12±1.54% and 44.21±3.24% and 39.79±2.76%

— article PMC10223552 (Pharmaceuticals, 2023)
